Results from patent EP0315467A2, “Pentamidine salts useful in the treatment and prophylaxis of pneumocystis carinii pneumonia” (LyphoMed, Inc., priority 1987, dated 1989).
Counter-ions that a name gives are not always drawn.

Tests used:
[1] = Solubility in water of pentamidine salts; assay type: physicochemical; settings: for Solubility in H₂O: Table I
[2] = background statement on the prior art; cited from earlier work

For `N=C(N)c1ccc(OCCCCCOc2ccc(C(=N)N)cc2)cc1` [Pentamidine Citrate], the “Solubility in H₂O” value [1] was 0.6 mg/mL.
With `N=C(N)c1ccc(OCCCCCOc2ccc(C(=N)N)cc2)cc1` [Pentamidine Tartarate] the “Solubility in H₂O” value [1] was 3.4 mg/mL.
For `N=C(N)c1ccc(OCCCCCOc2ccc(C(=N)N)cc2)cc1` [Pentamidine Hydrochloride, reference compound], the “Solubility in H₂O” value ([1]; Hydrochloride) is listed as 14.5 mg/mL and the “solubility in water (in words)” value [2] is listed as “substantially water insoluble”.
In the case of `N=C(N)c1ccc(OCCCCCOc2ccc(C(=N)N)cc2)cc1` [Pentamidine Gluconate], the “Solubility in H₂O” value [1] is reported as 114.8 mg/mL and the solubility ([1]; bound stated in the text) is reported as greater than 100 mg/mL.
For `N=C(N)c1ccc(OCCCCCOc2ccc(C(=N)N)cc2)cc1` [Pentamidine Nitrate], the “Solubility in H₂O” value [1] was 1.8 mg/mL.
With `N=C(N)c1ccc(OCCCCCOc2ccc(C(=N)N)cc2)cc1` [Pentamidine Lactate] the “Solubility in H₂O” value [1] was 100.3 mg/mL and the water solubility ([1]; bound stated in the text) was “greater than 100 mg/mL”.
In the case of `N=C(N)c1ccc(OCCCCCOc2ccc(C(=N)N)cc2)cc1` [Pentamidine Sulfate], the “Solubility in H₂O” value [1] is reported as 1.4 mg/mL.
With `N=C(N)c1ccc(OCCCCCOc2ccc(C(=N)N)cc2)cc1` [Pentamidine Acetate] the “Solubility in H₂O” value [1] was 17.0 mg/mL.
In the case of `N=C(N)c1ccc(OCCCCCOc2ccc(C(=N)N)cc2)cc1` [Pentamidine Phosphate], the “Solubility in H₂O” value [1] is reported as 16.8 mg/mL.
In the case of `N=C(N)c1ccc(OCCCCCOc2ccc(C(=N)N)cc2)cc1` [Pentamidine Borate], the “Solubility in H₂O” value [1] is reported as 6.9 mg/mL.
